Measurements: the supplement of paper PMC9912026

Test system: A375_aEGFR2
Assay: pERK immunofluorescence normalised to no-drug reference (=1); higher = more ERK phosphorylation (less pathway inhibition)
Conditions: drug treatment time 24 h, EGF time 8 h
Experimental: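 A375 CRISPRa-EGFR (A375_aEGFR2) or HT29 cells were treated with two-drug dose combinations (vemurafenib, LY3009120, cobimetinib) for 24 h, then stimulated with EGF (100 ng/mL) or mock medium for 8 h. pERK (T202/Y204) was measured by immunofluorescence as the cytosolic population average, normalised to an untreated no-drug reference of the block (=1). Averages of 2 technical replicates. A375 in 5% FBS, HT29 in 10% FBS.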

CCCS(=O)(=O)Nc1ccc(F)c(C(=O)c2c[nH]c3ncc(-c4ccc(Cl)cc4)cc23)c1F [Vemurafenib] + O=C(c1ccc(F)c(F)c1Nc1ccc(I)cc1F)N1CC(O)([C@@H]2CCCCN2)C1 [Cobimetinib]
pERK immunofluorescence normalised
Conditions | EGF 0 ng/mL | EGF 100 ng/mL
drug A concentration 0 µM, drug B concentration 31.62 pM | 1.03 | 1.05
drug A concentration 0 µM, drug B concentration 0.0001 µM | 1 | 1.07
drug A concentration 0 µM, drug B concentration 0.000316228 µM | 1 | 1.02
drug A concentration 0 µM, drug B concentration 0.001 µM | 0.917 | 1.01
drug A concentration 0 µM, drug B concentration 0.00316228 µM | 0.732 | 0.906
drug A concentration 0 µM, drug B concentration 0.01 µM | 0.399 | 0.695
drug A concentration 0 µM, drug B concentration 0.0316228 µM | 0.188 | 0.526
drug A concentration 0 µM, drug B concentration 0.1 µM | 0.147 | 0.468
drug A concentration 0 µM, drug B concentration 0.316228 µM | 0.141 | 0.347
drug A concentration 0 µM, drug B concentration 1 µM | 0.137 | 0.196
drug A concentration 0.000316228 µM, drug B concentration 0 µM | 1.01 | 1.04
drug A concentration 0.000316228 µM, drug B concentration 31.62 pM | 1.01 | 1.03
drug A concentration 0.000316228 µM, drug B concentration 0.0001 µM | 1.01 | 1.02
drug A concentration 0.000316228 µM, drug B concentration 0.000316228 µM | 0.984 | 1.02
drug A concentration 0.000316228 µM, drug B concentration 0.001 µM | 0.915 | 0.936
drug A concentration 0.000316228 µM, drug B concentration 0.00316228 µM | 0.687 | 0.804
drug A concentration 0.000316228 µM, drug B concentration 0.01 µM | 0.383 | 0.605
drug A concentration 0.000316228 µM, drug B concentration 0.0316228 µM | 0.175 | 0.498
drug A concentration 0.000316228 µM, drug B concentration 0.1 µM | 0.152 | 0.425
drug A concentration 0.000316228 µM, drug B concentration 0.316228 µM | 0.138 | 0.289
drug A concentration 0.000316228 µM, drug B concentration 1 µM | 0.14 | 0.179
drug A concentration 0.001 µM, drug B concentration 0 µM | 1.01 | 1.05
drug A concentration 0.001 µM, drug B concentration 31.62 pM | 1.02 | 1.04
drug A concentration 0.001 µM, drug B concentration 0.0001 µM | 1.01 | 1.02
drug A concentration 0.001 µM, drug B concentration 0.000316228 µM | 0.958 | 1.05
drug A concentration 0.001 µM, drug B concentration 0.001 µM | 0.857 | 0.99
drug A concentration 0.001 µM, drug B concentration 0.00316228 µM | 0.631 | 0.816
drug A concentration 0.001 µM, drug B concentration 0.01 µM | 0.328 | 0.621
drug A concentration 0.001 µM, drug B concentration 0.0316228 µM | 0.172 | 0.518
drug A concentration 0.001 µM, drug B concentration 0.1 µM | 0.142 | 0.443
drug A concentration 0.001 µM, drug B concentration 0.316228 µM | 0.139 | 0.3
drug A concentration 0.001 µM, drug B concentration 1 µM | 0.137 | 0.172
drug A concentration 0.00316228 µM, drug B concentration 0 µM | 1.02 | 1.06
drug A concentration 0.00316228 µM, drug B concentration 31.62 pM | 0.976 | 1.05
drug A concentration 0.00316228 µM, drug B concentration 0.0001 µM | 0.987 | 1.06
drug A concentration 0.00316228 µM, drug B concentration 0.000316228 µM | 0.943 | 0.991
drug A concentration 0.00316228 µM, drug B concentration 0.001 µM | 0.874 | 0.935
drug A concentration 0.00316228 µM, drug B concentration 0.00316228 µM | 0.623 | 0.81
drug A concentration 0.00316228 µM, drug B concentration 0.01 µM | 0.306 | 0.625
drug A concentration 0.00316228 µM, drug B concentration 0.0316228 µM | 0.164 | 0.525
drug A concentration 0.00316228 µM, drug B concentration 0.1 µM | 0.149 | 0.435
drug A concentration 0.00316228 µM, drug B concentration 0.316228 µM | 0.141 | 0.285
drug A concentration 0.00316228 µM, drug B concentration 1 µM | 0.138 | 0.166
drug A concentration 0.01 µM, drug B concentration 0 µM | 0.986 | 1.03
drug A concentration 0.01 µM, drug B concentration 31.62 pM | 0.927 | 1.02
drug A concentration 0.01 µM, drug B concentration 0.0001 µM | 0.905 | 0.991
drug A concentration 0.01 µM, drug B concentration 0.000316228 µM | 0.875 | 1.01
drug A concentration 0.01 µM, drug B concentration 0.001 µM | 0.814 | 0.909
drug A concentration 0.01 µM, drug B concentration 0.00316228 µM | 0.534 | 0.765
drug A concentration 0.01 µM, drug B concentration 0.01 µM | 0.292 | 0.613
drug A concentration 0.01 µM, drug B concentration 0.0316228 µM | 0.198 | 0.503
drug A concentration 0.01 µM, drug B concentration 0.1 µM | 0.144 | 0.417
drug A concentration 0.01 µM, drug B concentration 0.316228 µM | 0.139 | 0.29
drug A concentration 0.01 µM, drug B concentration 1 µM | 0.138 | 0.165
drug A concentration 0.0316228 µM, drug B concentration 0 µM | 0.881 | 1
drug A concentration 0.0316228 µM, drug B concentration 31.62 pM | 0.842 | 0.991
drug A concentration 0.0316228 µM, drug B concentration 0.0001 µM | 0.795 | 0.944
drug A concentration 0.0316228 µM, drug B concentration 0.000316228 µM | 0.753 | 0.892
drug A concentration 0.0316228 µM, drug B concentration 0.001 µM | 0.666 | 0.834
drug A concentration 0.0316228 µM, drug B concentration 0.00316228 µM | 0.441 | 0.692
drug A concentration 0.0316228 µM, drug B concentration 0.01 µM | 0.228 | 0.567
drug A concentration 0.0316228 µM, drug B concentration 0.0316228 µM | 0.161 | 0.495
drug A concentration 0.0316228 µM, drug B concentration 0.1 µM | 0.145 | 0.414
drug A concentration 0.0316228 µM, drug B concentration 0.316228 µM | 0.14 | 0.282
drug A concentration 0.0316228 µM, drug B concentration 1 µM | 0.138 | 0.164
drug A concentration 0.1 µM, drug B concentration 0 µM | 0.659 | 0.851
drug A concentration 0.1 µM, drug B concentration 31.62 pM | 0.542 | 0.79
drug A concentration 0.1 µM, drug B concentration 0.0001 µM | 0.539 | 0.787
drug A concentration 0.1 µM, drug B concentration 0.000316228 µM | 0.489 | 0.774
drug A concentration 0.1 µM, drug B concentration 0.001 µM | 0.404 | 0.672
drug A concentration 0.1 µM, drug B concentration 0.00316228 µM | 0.285 | 0.615
drug A concentration 0.1 µM, drug B concentration 0.01 µM | 0.186 | 0.553
drug A concentration 0.1 µM, drug B concentration 0.0316228 µM | 0.149 | 0.525
drug A concentration 0.1 µM, drug B concentration 0.1 µM | 0.146 | 0.407
drug A concentration 0.1 µM, drug B concentration 0.316228 µM | 0.14 | 0.283
drug A concentration 0.1 µM, drug B concentration 1 µM | 0.14 | 0.161
drug A concentration 0.316228 µM, drug B concentration 0 µM | 0.362 | 0.697
drug A concentration 0.316228 µM, drug B concentration 31.62 pM | 0.311 | 0.647
drug A concentration 0.316228 µM, drug B concentration 0.0001 µM | 0.28 | 0.635
drug A concentration 0.316228 µM, drug B concentration 0.000316228 µM | 0.264 | 0.643
drug A concentration 0.316228 µM, drug B concentration 0.001 µM | 0.235 | 0.6
drug A concentration 0.316228 µM, drug B concentration 0.00316228 µM | 0.187 | 0.584
drug A concentration 0.316228 µM, drug B concentration 0.01 µM | 0.161 | 0.557
drug A concentration 0.316228 µM, drug B concentration 0.0316228 µM | 0.146 | 0.502
drug A concentration 0.316228 µM, drug B concentration 0.1 µM | 0.142 | 0.388
drug A concentration 0.316228 µM, drug B concentration 0.316228 µM | 0.139 | 0.27
drug A concentration 0.316228 µM, drug B concentration 1 µM | 0.139 | 0.157
drug A concentration 1 µM, drug B concentration 0 µM | 0.211 | 0.639
drug A concentration 1 µM, drug B concentration 31.62 pM | 0.195 | 0.623
drug A concentration 1 µM, drug B concentration 0.0001 µM | 0.192 | 0.614
drug A concentration 1 µM, drug B concentration 0.000316228 µM | 0.189 | 0.614
drug A concentration 1 µM, drug B concentration 0.001 µM | 0.175 | 0.603
drug A concentration 1 µM, drug B concentration 0.00316228 µM | 0.169 | 0.615
drug A concentration 1 µM, drug B concentration 0.01 µM | 0.147 | 0.571
drug A concentration 1 µM, drug B concentration 0.0316228 µM | 0.142 | 0.494
drug A concentration 1 µM, drug B concentration 0.1 µM | 0.141 | 0.382
drug A concentration 1 µM, drug B concentration 0.316228 µM | 0.138 | 0.245
drug A concentration 1 µM, drug B concentration 1 µM | 0.141 | 0.153
drug A concentration 3.16228 µM, drug B concentration 0 µM | 0.171 | 0.647
drug A concentration 3.16228 µM, drug B concentration 31.62 pM | 0.161 | 0.666
drug A concentration 3.16228 µM, drug B concentration 0.0001 µM | 0.172 | 0.648
drug A concentration 3.16228 µM, drug B concentration 0.000316228 µM | 0.158 | 0.647
drug A concentration 3.16228 µM, drug B concentration 0.001 µM | 0.152 | 0.635
drug A concentration 3.16228 µM, drug B concentration 0.00316228 µM | 0.147 | 0.614
drug A concentration 3.16228 µM, drug B concentration 0.01 µM | 0.146 | 0.532
drug A concentration 3.16228 µM, drug B concentration 0.0316228 µM | 0.14 | 0.464
drug A concentration 3.16228 µM, drug B concentration 0.1 µM | 0.139 | 0.305
drug A concentration 3.16228 µM, drug B concentration 0.316228 µM | 0.139 | 0.179
drug A concentration 3.16228 µM, drug B concentration 1 µM | 0.14 | 0.138
drug A concentration 10 µM, drug B concentration 0 µM | 0.154 | 0.664
drug A concentration 10 µM, drug B concentration 31.62 pM | 0.152 | 0.616
drug A concentration 10 µM, drug B concentration 0.0001 µM | 0.148 | 0.612
drug A concentration 10 µM, drug B concentration 0.000316228 µM | 0.149 | 0.579
drug A concentration 10 µM, drug B concentration 0.001 µM | 0.147 | 0.584
drug A concentration 10 µM, drug B concentration 0.00316228 µM | 0.149 | 0.546
drug A concentration 10 µM, drug B concentration 0.01 µM | 0.147 | 0.476
drug A concentration 10 µM, drug B concentration 0.0316228 µM | 0.141 | 0.36
drug A concentration 10 µM, drug B concentration 0.1 µM | 0.14 | 0.209
drug A concentration 10 µM, drug B concentration 0.316228 µM | 0.141 | 0.146
drug A concentration 10 µM, drug B concentration 1 µM | 0.146 | 0.138
